Laboratory results from PubChem BioAssay (NCI).
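How tested: cells in 96-well plates exposed to compound for 48 hours at five concentrations. TGI denotes the concentration required for complete inhibition of growth.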

Legend:
Experiment in all cases: NCI-60 cell line screen, 48 h
[1] = test system: SNB-75 CNS
[2] = test system: OVCAR-3 ovarian
[3] = test system: OVCAR-8 ovarian
[4] = test system: SK-MEL-28 melanoma
[5] = test system: SK-OV-3 ovarian
[6] = test system: NCI-H522 lung
[7] = test system: U251 CNS
[8] = test system: NCI-H226 lung
[9] = test system: NCI-H23 lung
[10] = test system: HOP-62 NSCLC
[11] = test system: SN12C renal
[12] = test system: SK-MEL-2 melanoma
[13] = test system: SF-268 CNS
[14] = test system: NCI-H460 lung
[15] = test system: HT29 colon
[16] = test system: HCC-2998 colon
[17] = test system: EKVX NSCLC
[18] = test system: M14 melanoma
[19] = test system: CAKI-1 renal
[20] = test system: SNB-19 CNS

SMILES: O=S(=O)(O)c1ccc(N=Nc2ccc(N=Nc3ccc(/C=C/c4ccc(N=[N+]([O-])c5ccc(/C=C/c6ccc(N=Nc7ccc(N=Nc8ccc(S(=O)(=O)O)cc8)c8ccccc78)cc6S(=O)(=O)O)c(S(=O)(=O)O)c5)cc4S(=O)(=O)O)c(S(=O)(=O)O)c3)c3ccccc23)cc1
- TGI [1]: > 100 µM
- TGI [2]: > 100 µM
- TGI [3]: > 100 µM
- TGI [4]: > 100 µM
- TGI [5]: > 100 µM
- TGI [6]: 99.7 µM
- TGI [7]: > 100 µM
- TGI [8]: > 100 µM
- TGI [9]: > 100 µM
- TGI [10]: > 100 µM
- TGI [11]: > 100 µM
- TGI [12]: > 100 µM
- TGI [13]: > 100 µM
- TGI [14]: > 100 µM
- TGI [15]: > 100 µM
- TGI [16]: > 100 µM
- TGI [17]: > 100 µM

SMILES: O=C(COC(=O)c1ccccc1)c1ccc(Br)cc1
- TGI [1]: 29.9 µM
- TGI [2]: > 100 µM
- TGI [3]: > 100 µM
- TGI [4]: 32.1 µM
- TGI [5]: 33.3 µM
- TGI [18]: 31 µM
- TGI [7]: 27.3 µM
- TGI [19]: 6.44 µM
- TGI [9]: 49.2 µM
- TGI [10]: 43.8 µM
- TGI [11]: 29.4 µM
- TGI [12]: 28.2 µM
- TGI [20]: 30.5 µM
- TGI [13]: 34.4 µM
- TGI [14]: 37.2 µM
- TGI [15]: 46.3 µM
- TGI [16]: 26.9 µM
- TGI [17]: 28 µM

SMILES: C/C(=C1/N=C(c2cc([N+](=O)[O-])ccc2Cl)N(C2=CC=C(Cl)CC2)C1=O)c1cc2ccccc2oc1=O
- TGI [1]: > 100 µM
- TGI [2]: > 100 µM
- TGI [3]: > 100 µM
- TGI [4]: > 100 µM
- TGI [5]: > 100 µM
- TGI [18]: > 100 µM
- TGI [6]: > 100 µM
- TGI [7]: > 100 µM
- TGI [19]: > 100 µM
- TGI [8]: > 100 µM
- TGI [9]: 58.8 µM
- TGI [10]: > 100 µM
- TGI [11]: > 100 µM
- TGI [20]: > 100 µM
- TGI [13]: > 100 µM
- TGI [14]: > 100 µM
- TGI [15]: > 100 µM
- TGI [16]: > 100 µM
- TGI [17]: > 100 µM

SMILES: CC1=CC[C@H](C)C(C)(C)C1/C=C/C(C)=C/CC[C@@]1(CO)[C@H](CCCO)/C(=C(/C)C=O)CC[C@]1(C)O (stereo partly drawn)
- TGI [3]: 32.9 µM
- TGI [4]: 23.7 µM
- TGI [5]: 39.9 µM
- TGI [18]: 12.3 µM
- TGI [6]: 11.3 µM
- TGI [7]: 12.9 µM
- TGI [19]: 10.5 µM
- TGI [8]: 14.4 µM
- TGI [9]: 23 µM
- TGI [11]: 19.1 µM
- TGI [12]: 29.5 µM
- TGI [20]: 21.4 µM
- TGI [13]: 25.1 µM
- TGI [14]: 13.5 µM
- TGI [15]: 12.1 µM
- TGI [16]: 4.41 µM
- TGI [17]: 4.48 µM

SMILES: Cc1cc(S(N)(=O)=O)c(S/C(=N\Nc2ccc([N+](=O)[O-])cc2)c2ccc(Cl)cc2)cc1Cl
- TGI [1]: 4.01 µM
- TGI [2]: 3.85 µM
- TGI [4]: 4.91 µM
- TGI [5]: 3.93 µM
- TGI [18]: > 100 µM
- TGI [6]: 11.5 µM
- TGI [7]: 5.41 µM
- TGI [19]: 14.9 µM
- TGI [8]: 6.57 µM
- TGI [9]: 4.91 µM
- TGI [10]: > 100 µM
- TGI [11]: 10.9 µM
- TGI [12]: 9.58 µM
- TGI [20]: 27 µM
- TGI [13]: 6.58 µM
- TGI [14]: 5.3 µM
- TGI [15]: 4.36 µM
- TGI [17]: 28.3 µM

SMILES: CCCCN(CCCC)c1ccc(N=Nc2ccc(S(=O)(=O)O)cc2)cc1
- TGI [1]: 39.2 µM
- TGI [2]: > 100 µM
- TGI [3]: 44.9 µM
- TGI [4]: > 100 µM
- TGI [5]: > 100 µM
- TGI [18]: > 100 µM
- TGI [7]: > 100 µM
- TGI [19]: 49.6 µM
- TGI [9]: 47.2 µM
- TGI [11]: 85 µM
- TGI [12]: > 100 µM
- TGI [20]: > 100 µM
- TGI [13]: > 100 µM
- TGI [14]: > 100 µM
- TGI [15]: 85.1 µM
- TGI [16]: 73.7 µM
- TGI [17]: > 100 µM

SMILES: C=CCN1C(=O)/C(=C/c2cccs2)N=C1SC1OC(COC(=O)c2ccccc2)C(OC(=O)c2ccccc2)C1OC(=O)c1ccccc1 (stereo not drawn)
- TGI [1]: > 100 µM
- TGI [2]: > 100 µM
- TGI [3]: > 100 µM
- TGI [4]: > 100 µM
- TGI [5]: > 100 µM
- TGI [6]: 28 µM
- TGI [7]: > 100 µM
- TGI [19]: > 100 µM
- TGI [8]: > 100 µM
- TGI [9]: > 100 µM
- TGI [10]: > 100 µM
- TGI [12]: > 100 µM
- TGI [14]: > 100 µM
- TGI [16]: > 100 µM
- TGI [17]: > 100 µM

SMILES: COc1cccc(NC(=O)N/C(=C/c2ccc(N(CCC#N)CCC#N)cc2)NC(=O)c2cc([N+](=O)[O-])ccc2Cl)c1
- TGI [2]: > 100 µM
- TGI [3]: > 100 µM
- TGI [4]: > 100 µM
- TGI [5]: > 100 µM
- TGI [6]: > 100 µM
- TGI [7]: > 100 µM
- TGI [19]: > 100 µM
- TGI [8]: > 100 µM
- TGI [9]: > 100 µM
- TGI [10]: > 100 µM
- TGI [11]: > 100 µM
- TGI [12]: > 100 µM
- TGI [20]: > 100 µM
- TGI [13]: > 100 µM
- TGI [17]: > 100 µM

SMILES: Nc1ccccc1Sc1ccc(Cl)cc1
- TGI [1]: 88.9 µM
- TGI [2]: 72.1 µM
- TGI [3]: > 100 µM
- TGI [4]: 64 µM
- TGI [5]: > 100 µM
- TGI [18]: > 100 µM
- TGI [7]: 36.2 µM
- TGI [8]: 26.2 µM
- TGI [9]: 64.4 µM
- TGI [10]: > 100 µM
- TGI [11]: 56.1 µM
- TGI [12]: 87.8 µM
- TGI [13]: > 100 µM
- TGI [14]: 68.9 µM
- TGI [15]: 36.3 µM
- TGI [16]: > 100 µM
- TGI [17]: 76.9 µM
